{"source": "paper PMC6331912", "about": "“7-Methoxytacrine-p-Anisidine Hybrids as Novel Dual Binding Site Acetylcholinesterase Inhibitors for Alzheimer’s Disease Treatment” (Molecules, 2015)", "format_in_all_cases": "biochemical", "key": {"[1]": {"molecular_target": "T1, human recombinant acetylcholinesterase (hAChE) (Homo sapiens, UniProt P22303)", "T1 construct": "purchased Sigma-Aldrich (Prague, Czech Republic)", "T1 sequence (P22303 32-614)": "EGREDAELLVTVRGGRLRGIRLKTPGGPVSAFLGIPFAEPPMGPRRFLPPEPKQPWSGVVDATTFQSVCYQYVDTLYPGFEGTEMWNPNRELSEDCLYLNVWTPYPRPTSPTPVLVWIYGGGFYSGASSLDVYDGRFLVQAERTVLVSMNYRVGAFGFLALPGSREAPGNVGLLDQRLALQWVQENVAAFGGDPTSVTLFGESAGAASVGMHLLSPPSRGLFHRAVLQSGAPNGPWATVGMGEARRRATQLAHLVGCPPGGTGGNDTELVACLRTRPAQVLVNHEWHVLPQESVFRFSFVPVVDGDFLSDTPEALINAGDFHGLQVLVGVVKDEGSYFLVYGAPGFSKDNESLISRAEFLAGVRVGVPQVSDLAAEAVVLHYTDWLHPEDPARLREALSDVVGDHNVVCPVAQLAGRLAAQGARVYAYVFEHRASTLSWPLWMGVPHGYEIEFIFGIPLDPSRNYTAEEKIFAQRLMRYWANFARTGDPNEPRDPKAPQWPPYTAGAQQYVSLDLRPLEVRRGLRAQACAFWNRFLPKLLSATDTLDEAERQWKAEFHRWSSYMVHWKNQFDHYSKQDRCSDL", "assay": "biochemical", "settings": "for IC50: mean of at least three experiments, substrate ATCh, pH 7.4, 37 °C, read-out: hAChE IC50 ± SEM; for Selectivity for hAChE: ratio hBChE IC50/hAChE IC50; for fold weaker inhibitor of hAChE compared to tacrine: ratio of IC50 to tacrine"}, "[2]": {"molecular_target": "human plasma butyrylcholinesterase (hBChE) (Homo sapiens, UniProt P06276)", "sequence (P06276 29-602)": "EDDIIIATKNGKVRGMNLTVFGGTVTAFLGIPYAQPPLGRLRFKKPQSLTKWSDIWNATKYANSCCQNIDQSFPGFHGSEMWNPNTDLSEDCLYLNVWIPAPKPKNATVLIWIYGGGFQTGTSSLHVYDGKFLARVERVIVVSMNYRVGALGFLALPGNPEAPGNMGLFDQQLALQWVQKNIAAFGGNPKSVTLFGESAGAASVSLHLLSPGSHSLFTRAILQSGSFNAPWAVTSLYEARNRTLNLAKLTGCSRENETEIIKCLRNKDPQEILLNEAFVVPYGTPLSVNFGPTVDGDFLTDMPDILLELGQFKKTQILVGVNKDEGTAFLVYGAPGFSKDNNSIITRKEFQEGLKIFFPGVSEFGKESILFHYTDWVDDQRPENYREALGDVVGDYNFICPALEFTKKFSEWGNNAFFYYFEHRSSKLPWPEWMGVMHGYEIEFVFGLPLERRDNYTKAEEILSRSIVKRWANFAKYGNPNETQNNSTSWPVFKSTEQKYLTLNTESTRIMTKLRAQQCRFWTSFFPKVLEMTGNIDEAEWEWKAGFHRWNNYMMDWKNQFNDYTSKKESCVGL", "assay": "biochemical", "settings": "for IC50: mean of at least three experiments, substrate BTCh, pH 7.4, 37 °C, read-out: hBChE IC50 ± SEM; for fold weaker inhibitor of hBChE related to tacrine: ratio of IC50 to tacrine"}, "AChE": {"molecular_target": "T2, AChE (Homo sapiens, UniProt P22303)", "T2 construct": "purchased Sigma-Aldrich (Prague, Czech Republic)", "T2 sequence (P22303 32-614)": "as the sequence (P22303 32-614) above", "assay": "Kinetic study of AChE inhibition (Ellman's method, nonlinear regression, Lineweaver-Burk)", "settings": "for Ki: estimated by nonlinear regression analysis, substrate ATCh; for type of inhibition: p < 0.05, apparent Vmax decreased, Km unchanged with increasing inhibitor concentration", "procedure": "[…]. We used a kinetic assay in order to obtain information about the mode of inhibition and binding site of the target compounds. The mechanism of inhibition was analyzed by recording substrate concentration—enzymatic reaction rate curves in the presence of different concentrations of compounds 15 and 19. Analysis confirmed a non-competitive type of inhibition (p < 0.05) for both compounds. With increasing concentration of inhibitor, apparent Vmax decreased and Km remained unchanged. […] […]. Such a pattern of inhibition is also characteristic for donepezil and it may indicate prevailing interactions of the enzyme with PAS [36]. PAS of AChE is associated with the ability to induce Aβ aggregation, thus, compounds interacting with this region may inhibit such a process and could have additional benefit for the treatment of AD [37].\nFigure 3 Steady-state inhibition of AChE hydrolysis of acetylthiocholine (ATCh) by compounds 15 and 19. […]. Lines were derived from a weighted least-squares analysis of data.\nThe kinetic study of AChE inhibition was performed by using Ellman’s method (described above). The type of inhibition was elucidated from the nonlinear regression analysis. Results for each type model of inhibition (competitive, noncompetitive, uncompetitive and mixed) were compared with sum-of-squares F-test. […]. Linear regression was used for calculation of Lineweaver-Burk plots. All calculations were performed using the GraphPad Prism software."}}}
{"smiles": "COc1ccc(NC(=O)NCCCCCCCNc2c3c(nc4ccc(OC)cc24)CCCC3)cc1.O=C(O)C(O)C(O)C(=O)O", "note": "[compound 21, 3-{7-[(7-Methoxy-1,2,3,4-tetrahydroacridin-9-yl)amino]heptyl}-1-(4-methoxyphenyl)urea-2,3‑dihydroxy-succinate]", "values": [{"measurement": "IC50", "setting": "[1]", "value": "1.72 ± 0.3", "unit": "µM"}, {"measurement": "Selectivity for hAChE", "setting": "[1]", "value": 0.98}, {"measurement": "IC50", "setting": "[2]", "value": "1.69 ± 0.2", "unit": "µM"}]}
{"smiles": "COc1ccc(NC(=S)NCCNc2c3c(nc4ccc(OC)cc24)CCCC3)cc1.O=C(O)C(O)C(O)C(=O)O", "note": "[compound 9, 3-{2-[(7-Methoxy-1,2,3,4-tetrahydroacridin-9-yl)amino]ethyl}-1-(4-methoxyphenyl)thiourea-2,3‑dihydroxy-succinate]", "values": [{"measurement": "IC50", "setting": "[1]", "value": "43.6 ± 2.1", "unit": "µM"}, {"measurement": "Selectivity for hAChE", "setting": "[1]", "value": 0.02}, {"measurement": "IC50", "setting": "[2]", "value": "1.03 ± 0.1", "unit": "µM"}, {"measurement": "fold weaker inhibitor of hBChE related to tacrine", "setting": "[2]", "value": 12.9, "unit": "fold"}]}
{"smiles": "COc1ccc(NC(=O)NCCCNc2c3c(nc4ccc(OC)cc24)CCCC3)cc1.O=C(O)C(O)C(O)C(=O)O", "note": "[compound 17, 3-{3-[(7-Methoxy-1,2,3,4-tetrahydroacridin-9-yl)amino]propyl}-1-(4-methoxyphenyl)urea-2,3‑dihydroxy-succinate]", "values": [{"measurement": "IC50", "setting": "[1]", "value": "26.9 ± 5.9", "unit": "µM"}, {"measurement": "Selectivity for hAChE", "setting": "[1]", "value": 0.59}, {"measurement": "IC50", "setting": "[2]", "value": "15.9 ± 4.1", "unit": "µM"}]}
{"smiles": "COc1ccc(NC(=O)NCCCCNc2c3c(nc4ccc(OC)cc24)CCCC3)cc1.O=C(O)C(O)C(O)C(=O)O", "note": "[compound 18, 3-{4-[(7-Methoxy-1,2,3,4-tetrahydroacridin-9-yl)amino]butyl}-1-(4-methoxyphenyl)urea-2,3‑dihydroxy-succinate]", "values": [{"measurement": "IC50", "setting": "[1]", "value": "13.8 ± 3.9", "unit": "µM"}, {"measurement": "Selectivity for hAChE", "setting": "[1]", "value": 0.68}, {"measurement": "IC50", "setting": "[2]", "value": "9.34 ± 0.1", "unit": "µM"}]}
{"smiles": "COc1ccc(NC(=O)NCCNc2c3c(nc4ccc(OC)cc24)CCCC3)cc1.O=C(O)C(O)C(O)C(=O)O", "note": "[compound 16, 3-{2-[(7-Methoxy-1,2,3,4-tetrahydroacridin-9-yl)amino]ethyl}-1-(4-methoxyphenyl)urea-2,3‑dihydroxy-succinate]", "values": [{"measurement": "IC50", "setting": "[1]", "value": "44.9 ± 1.4", "unit": "µM"}, {"measurement": "Selectivity for hAChE", "setting": "[1]", "value": 0.27}, {"measurement": "IC50", "setting": "[2]", "value": "11.9 ± 2.3", "unit": "µM"}]}
{"smiles": "COc1ccc(NC(=O)NCCCCCNc2c3c(nc4ccc(OC)cc24)CCCC3)cc1.O=C(O)C(O)C(O)C(=O)O", "note": "[compound 19, 3-{5-[(7-Methoxy-1,2,3,4-tetrahydroacridin-9-yl)amino]pentyl}-1-(4-methoxyphenyl)urea-2,3‑dihydroxy-succinate]", "values": [{"measurement": "Ki", "setting": "AChE", "value": "453 ± 25.1", "unit": "nM"}, {"measurement": "type of inhibition", "setting": "AChE", "value": "non-competitive"}, {"measurement": "IC50", "setting": "[1]", "value": "1.35 ± 0.3", "unit": "µM"}, {"measurement": "Selectivity for hAChE", "setting": "[1]", "value": 8.07}, {"measurement": "fold weaker inhibitor of hAChE compared to tacrine", "setting": "[1]", "value": 4.2, "unit": "fold"}, {"measurement": "IC50", "setting": "[2]", "value": "10.9 ± 1.6", "unit": "µM"}]}
{"smiles": "COc1ccc(NC(=S)NCCCCCCNc2c3c(nc4ccc(OC)cc24)CCCC3)cc1.O=C(O)C(O)C(O)C(=O)O", "note": "[compound 13, 3-{6-[(7-Methoxy-1,2,3,4-tetrahydroacridin-9-yl)amino]hexyl}-1-(4-methoxyphenyl)thiourea-2,3‑dihydroxy-succinate]", "values": [{"measurement": "IC50", "setting": "[1]", "value": "10.3 ± 1.3", "unit": "µM"}, {"measurement": "Selectivity for hAChE", "setting": "[1]", "value": 0.90}, {"measurement": "IC50", "setting": "[2]", "value": "9.35 ± 0.1", "unit": "µM"}]}
{"smiles": "COc1ccc(NC(=S)NCCCCCNc2c3c(nc4ccc(OC)cc24)CCCC3)cc1.O=C(O)C(O)C(O)C(=O)O", "note": "[compound 12, 3-{5-[(7-Methoxy-1,2,3,4-tetrahydroacridin-9-yl)amino]pentyl}-1-(4-methoxyphenyl)thiourea-2,3‑dihydroxy-succinate]", "values": [{"measurement": "IC50", "setting": "[1]", "value": "4.9 ± 0.3", "unit": "µM"}, {"measurement": "Selectivity for hAChE", "setting": "[1]", "value": 2.71}, {"measurement": "IC50", "setting": "[2]", "value": "13.5 ± 0.7", "unit": "µM"}]}
{"smiles": "COc1ccc(NC(=S)NCCCCCCCCNc2c3c(nc4ccc(OC)cc24)CCCC3)cc1.O=C(O)C(O)C(O)C(=O)O", "note": "[compound 15, 3-{8-[(7-Methoxy-1,2,3,4-tetrahydroacridin-9-yl)amino]octyl}-1-(4-methoxyphenyl)thiourea-2,3‑dihydroxy-succinate]", "values": [{"measurement": "Ki", "setting": "AChE", "value": "1330 ± 125", "unit": "nM"}, {"measurement": "type of inhibition", "setting": "AChE", "value": "non-competitive"}, {"measurement": "IC50", "setting": "[1]", "value": "1.36 ± 0.4", "unit": "µM"}, {"measurement": "Selectivity for hAChE", "setting": "[1]", "value": 7.53}, {"measurement": "fold weaker inhibitor of hAChE compared to tacrine", "setting": "[1]", "value": 4.2, "unit": "fold"}, {"measurement": "IC50", "setting": "[2]", "value": "10.2 ± 4.7", "unit": "µM"}]}
{"smiles": "COc1ccc(NC(=S)NCCCNc2c3c(nc4ccc(OC)cc24)CCCC3)cc1.O=C(O)C(O)C(O)C(=O)O", "note": "[compound 10, 3-{3-[(7-Methoxy-1,2,3,4-tetrahydroacridin-9-yl)amino]propyl}-1-(4-methoxyphenyl)thiourea-2,3‑dihydroxy-succinate]", "values": [{"measurement": "IC50", "setting": "[1]", "value": "6.36 ± 0.5", "unit": "µM"}, {"measurement": "Selectivity for hAChE", "setting": "[1]", "value": 1.37}, {"measurement": "IC50", "setting": "[2]", "value": "8.73 ± 0.1", "unit": "µM"}]}
{"smiles": "COc1ccc(NC(=O)NCCCCCCCCNc2c3c(nc4ccc(OC)cc24)CCCC3)cc1.O=C(O)C(O)C(O)C(=O)O", "note": "[compound 22, 3-{8-[(7-Methoxy-1,2,3,4-tetrahydroacridin-9-yl)amino]octyl}-1-(4-methoxyphenyl)urea-2,3‑dihydroxy-succinate]", "values": [{"measurement": "IC50", "setting": "[1]", "value": "2.14 ± 0.6", "unit": "µM"}, {"measurement": "Selectivity for hAChE", "setting": "[1]", "value": 0.63}, {"measurement": "IC50", "setting": "[2]", "value": "1.34 ± 0.2", "unit": "µM"}, {"measurement": "fold weaker inhibitor of hBChE related to tacrine", "setting": "[2]", "value": 16.8, "unit": "fold"}]}
{"smiles": "COc1ccc(NC(=S)NCCCCCCCNc2c3c(nc4ccc(OC)cc24)CCCC3)cc1.O=C(O)C(O)C(O)C(=O)O", "note": "[compound 14, 3-{7-[(7-Methoxy-1,2,3,4-tetrahydroacridin-9-yl)amino]heptyl}-1-(4-methoxyphenyl)thiourea-2,3‑dihydroxy-succinate]", "values": [{"measurement": "IC50", "setting": "[1]", "value": "3.96 ± 0.1", "unit": "µM"}, {"measurement": "Selectivity for hAChE", "setting": "[1]", "value": 0.79}, {"measurement": "IC50", "setting": "[2]", "value": "3.13 ± 0.3", "unit": "µM"}]}
{"smiles": "COc1ccc(NC(=S)NCCCCNc2c3c(nc4ccc(OC)cc24)CCCC3)cc1.O=C(O)C(O)C(O)C(=O)O", "note": "[compound 11, 3-{4-[(7-Methoxy-1,2,3,4-tetrahydroacridin-9-yl)amino]butyl}-1-(4-methoxyphenyl)thiourea-2,3‑dihydroxy-succinate]", "values": [{"measurement": "IC50", "setting": "[1]", "value": "32.8 ± 9.9", "unit": "µM"}, {"measurement": "Selectivity for hAChE", "setting": "[1]", "value": 0.18}, {"measurement": "IC50", "setting": "[2]", "value": "6.04 ± 0.1", "unit": "µM"}]}
{"smiles": "COc1ccc(NC(=O)NCCCCCCNc2c3c(nc4ccc(OC)cc24)CCCC3)cc1.O=C(O)C(O)C(O)C(=O)O", "note": "[compound 20, 3-{6-[(7-Methoxy-1,2,3,4-tetrahydroacridin-9-yl)amino]hexyl}-1-(4-methoxyphenyl)urea-2,3‑dihydroxy-succinate]", "values": [{"measurement": "IC50", "setting": "[1]", "value": "4.56 ± 0.9", "unit": "µM"}, {"measurement": "Selectivity for hAChE", "setting": "[1]", "value": 1.26}, {"measurement": "IC50", "setting": "[2]", "value": "5.75 ± 0.4", "unit": "µM"}]}
